# Source: ChEMBL document CHEMBL1159227, “Piperogalin, a new prenylated diphenol from Peperomia galioides” (1995)
# Activity calls are given as the source filed them. The calls are words filed in the database; no cut-off is given here.
# Experiments:
# [1] = test system: Leishmania braziliensis; experiment: Antileishmanial activity against Leishmania braziliensis 2903 promastigotes assessed as immobilized parasites at 100 ug/ml after 24 hrs at 28 degC; type: functional, organism-based
# [2] = test system: Trypanosoma cruzi; experiment: Antitrypanosomal activity against Trypanosoma cruzi Y trypomastigotes assessed as lysis of trypomastigotes at 250 ug/ml after 24 hrs at 4 degC; type: functional
# [3] = test system: Leishmania donovani; experiment: Antileishmanial activity against Leishmania donovani PP75 promastigotes assessed as total lysis of parasites at 100 ug/ml after 24 hrs at 28 degC; type: functional, organism-based
# [4] = test system: Leishmania amazonensis; experiment: Antileishmanial activity against Leishmania amazonensis H142 promastigotes assessed as total lysis of parasites at 100 ug/ml after 24 hrs at 28 degC; type: functional, organism-based
# [5] = test system: Leishmania donovani; experiment: Antileishmanial activity against Leishmania donovani PP75 promastigotes assessed as total lysis of parasites at 25 ug/ml after 24 hrs at 28 degC; type: functional, organism-based
# [6] = test system: Leishmania donovani; experiment: Antileishmanial activity against Leishmania donovani PP75 promastigotes assessed as lysis of parasites at 10 ug/ml after 24 hrs at 28 degC; type: functional
# [7] = test system: Leishmania amazonensis; experiment: Antileishmanial activity against Leishmania amazonensis promastigotes assessed as lysis of parasites at 10 ug/ml after 24 hrs at 28 degC; type: functional
# [8] = test system: Leishmania braziliensis; experiment: Antileishmanial activity against Leishmania braziliensis 2903 promastigotes assessed as lysis of parasites at 10 ug/ml after 24 hrs at 28 degC; type: functional
# [9] = test system: Leishmania donovani; experiment: Antileishmanial activity against Leishmania donovani PP75 promastigotes assessed as total lysis of parasites at 50 ug/ml after 24 hrs at 28 degC; type: functional, organism-based
# [10] = test system: Leishmania amazonensis; experiment: Antileishmanial activity against Leishmania amazonensis promastigotes assessed as total lysis of parasites at 25 ug/ml after 24 hrs at 28 degC; type: functional, organism-based
# [11] = test system: Leishmania braziliensis; experiment: Antileishmanial activity against Leishmania braziliensis 2903 promastigotes assessed as total lysis of parasites at 25 ug/ml after 24 hrs at 28 degC; type: functional, organism-based
# [12] = test system: Leishmania braziliensis; experiment: Antileishmanial activity against Leishmania braziliensis 2903 promastigotes assessed as total lysis of parasites at 100 ug/ml after 24 hrs at 28 degC; type: functional, organism-based
# [13] = test system: Leishmania amazonensis; experiment: Antileishmanial activity against Leishmania amazonensis promastigotes assessed as total lysis of parasites at 50 ug/ml after 24 hrs at 28 degC; type: functional, organism-based
# [14] = test system: Leishmania donovani; experiment: Antileishmanial activity against Leishmania donovani PP75 promastigotes assessed as immobilized parasites at 10 ug/ml after 24 hrs at 28 degC; type: functional, organism-based
# [15] = test system: Leishmania braziliensis; experiment: Antileishmanial activity against Leishmania braziliensis 2903 promastigotes assessed as total lysis of parasites at 50 ug/ml after 24 hrs at 28 degC; type: functional, organism-based
# [16] = test system: Leishmania braziliensis; experiment: Antileishmanial activity against Leishmania braziliensis 2903 promastigotes assessed as immobilized parasites at 10 ug/ml after 24 hrs at 28 degC; type: functional, organism-based
# [17] = test system: Leishmania amazonensis; experiment: Antileishmanial activity against Leishmania amazonensis promastigotes assessed as immobilized parasites at 10 ug/ml after 24 hrs at 28 degC; type: functional, organism-based
SMILES,Activity [1],Activity [2],Activity [3],Activity [4],Activity [5],Activity [6],Activity [7],Activity [8],Activity [9],Activity [10],Activity [11],Activity [12],Activity [13],Activity [14],Activity [15],Activity [16],Activity [17]
CC(C)=CCC/C(C)=C/CC/C(C)=C/Cc1c(O)cc(C)c(C(=O)O)c1O [GRIFOLIC ACID],Active,0%,Active,Active,,,,,,,,,,,,,
CC(C)=CCC/C(C)=C/Cc1c(O)cc(C)c(CC=C(C)C)c1O [PIPEROGALIN],,42%,Active,Active,Active,>90%,>90%,>90%,Active,Active,Active,Active,Active,,,,
CC(C)=CCC/C(C)=C/CC/C(C)=C/Cc1c(O)cc(C)cc1O [GRIFOLIN],,68%,Active,Active,Active,,,,Active,Active,Active,Active,Active,Active,Active,Active,Active
